ChEMBL document CHEMBL1144680, “Structure-guided design of aminopyrimidine amides as potent, selective inhibitors of lymphocyte specific kinase: synthesis, structure-activity relationships, and inhibition of in vivo T cell activation” (J Med Chem, 2008)

Experiments:
[1] = Protein binding in mouse plasma; assay type: ADME, cell-free; settings: read-out: PB (converted)
Blood [2] = test: Inhibition of LPS-induced TNFalpha production in human whole blood by ELISA; assay type: functional, tissue-based
Blood [3] = test: Inhibition of anti-CD3-induced IL2 production in human whole blood by ELISA; assay type: functional, tissue-based
[4] = Volume of distribution at steady state in Sprague-Dawley rat at 0.5 mg/kg, iv; assay type: ADME, organism-based; set-up: dose 0.5 mg/kg, route intravenous; settings: in vivo, read-out: Vdss
[5] = Tmax in Sprague-Dawley rat at 2 mg/kg; assay type: ADME, organism-based; set-up: dose 2 mg/kg; settings: in vivo
[6] = Protein binding in rat plasma; assay type: ADME, cell-free; settings: read-out: PB (converted)
[7] = target: T1, Tyrosine-protein kinase JAK3 (Homo sapiens, UniProt P52333); test: Inhibition of Jak3 by HTRF assay
T1 sequence (P52333 whole entry): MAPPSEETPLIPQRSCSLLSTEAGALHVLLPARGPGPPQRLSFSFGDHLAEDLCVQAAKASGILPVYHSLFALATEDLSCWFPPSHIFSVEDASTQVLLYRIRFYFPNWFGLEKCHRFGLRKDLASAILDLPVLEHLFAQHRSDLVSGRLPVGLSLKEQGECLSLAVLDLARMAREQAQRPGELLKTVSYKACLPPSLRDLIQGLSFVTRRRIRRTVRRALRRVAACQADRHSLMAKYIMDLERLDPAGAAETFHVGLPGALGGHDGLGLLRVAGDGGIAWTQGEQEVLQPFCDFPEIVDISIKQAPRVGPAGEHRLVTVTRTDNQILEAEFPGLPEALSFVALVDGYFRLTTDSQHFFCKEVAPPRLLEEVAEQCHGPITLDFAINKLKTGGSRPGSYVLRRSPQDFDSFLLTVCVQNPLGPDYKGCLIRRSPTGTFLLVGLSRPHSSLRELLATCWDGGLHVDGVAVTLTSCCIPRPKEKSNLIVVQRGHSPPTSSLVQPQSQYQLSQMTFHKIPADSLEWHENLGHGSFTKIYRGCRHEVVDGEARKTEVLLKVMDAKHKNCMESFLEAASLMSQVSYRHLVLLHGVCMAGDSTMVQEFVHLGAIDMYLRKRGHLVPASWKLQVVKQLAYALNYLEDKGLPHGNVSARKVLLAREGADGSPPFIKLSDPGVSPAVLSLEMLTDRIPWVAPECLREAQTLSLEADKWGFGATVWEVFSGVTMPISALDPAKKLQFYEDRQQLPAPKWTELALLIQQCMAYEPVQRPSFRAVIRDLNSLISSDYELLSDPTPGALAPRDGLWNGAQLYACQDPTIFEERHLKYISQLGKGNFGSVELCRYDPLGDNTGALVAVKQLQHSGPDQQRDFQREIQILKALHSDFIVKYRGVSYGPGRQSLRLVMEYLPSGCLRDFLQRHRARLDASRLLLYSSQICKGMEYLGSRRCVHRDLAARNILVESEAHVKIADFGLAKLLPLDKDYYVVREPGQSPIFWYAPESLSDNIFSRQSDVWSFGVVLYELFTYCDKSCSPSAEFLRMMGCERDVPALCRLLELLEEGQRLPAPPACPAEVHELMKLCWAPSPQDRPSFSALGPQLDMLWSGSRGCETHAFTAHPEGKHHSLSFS

Angiopoietin-1 receptor = Angiopoietin-1 receptor (Homo sapiens, UniProt Q02763); test: Inhibition of Tie2 by HTRF assay
[8] = target: Mitogen-activated protein kinase 14 (Homo sapiens, UniProt Q16539); test: Inhibition of p38alpha by HTRF assay
[9] = AUC (0 to infinity) in Sprague-Dawley rat at 2 mg/kg, po; assay type: ADME, organism-based; set-up: time infinity, dose 2 mg/kg, route oral; settings: plasma
[10] = Cmax in Sprague-Dawley rat at 2 mg/kg, po; assay type: ADME, organism-based; set-up: dose 2 mg/kg, route oral; settings: in vivo
[11] = target: Vascular endothelial growth factor receptor 2 (Homo sapiens, UniProt P35968); test: Inhibition of KDR by HTRF assay
[12] = Half life in Sprague-Dawley rat at 0.5 mg/kg, iv; assay type: ADME, organism-based; set-up: dose 0.5 mg/kg, route intravenous; settings: in vivo
[13] = Oral bioavailability in Sprague-Dawley rat at 2 mg/kg; assay type: ADME, organism-based; settings: in vivo
[14] = Clearance in Sprague-Dawley rat at 0.5 mg/kg, iv; assay type: ADME, organism-based; set-up: dose 0.5 mg/kg, route intravenous; settings: in vivo
Lymphocyte = test: Inhibition of T cell activation in human peripheral blood lymphocytes by mixed lymphocyte reaction; assay type: functional, cell-based
[15] = target: Tyrosine-protein kinase Lck (Homo sapiens, UniProt P06239)
Sequence of Tyrosine-protein kinase Lck (P06239 whole entry): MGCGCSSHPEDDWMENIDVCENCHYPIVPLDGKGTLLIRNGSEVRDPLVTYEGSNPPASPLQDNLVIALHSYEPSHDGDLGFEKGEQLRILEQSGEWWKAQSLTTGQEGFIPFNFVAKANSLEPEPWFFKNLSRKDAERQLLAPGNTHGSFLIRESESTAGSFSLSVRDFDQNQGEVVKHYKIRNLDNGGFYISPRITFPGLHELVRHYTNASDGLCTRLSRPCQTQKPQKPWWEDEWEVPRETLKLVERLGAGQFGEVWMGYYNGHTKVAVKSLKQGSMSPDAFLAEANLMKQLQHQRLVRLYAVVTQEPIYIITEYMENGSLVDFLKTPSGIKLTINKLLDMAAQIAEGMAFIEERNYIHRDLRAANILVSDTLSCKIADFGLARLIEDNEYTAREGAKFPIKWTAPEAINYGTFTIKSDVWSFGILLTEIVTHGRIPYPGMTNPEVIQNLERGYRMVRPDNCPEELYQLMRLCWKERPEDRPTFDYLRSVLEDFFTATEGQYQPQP
Description: Inhibition of Lck by HTRF assay

Sequence of Angiopoietin-1 receptor (Q02763 whole entry): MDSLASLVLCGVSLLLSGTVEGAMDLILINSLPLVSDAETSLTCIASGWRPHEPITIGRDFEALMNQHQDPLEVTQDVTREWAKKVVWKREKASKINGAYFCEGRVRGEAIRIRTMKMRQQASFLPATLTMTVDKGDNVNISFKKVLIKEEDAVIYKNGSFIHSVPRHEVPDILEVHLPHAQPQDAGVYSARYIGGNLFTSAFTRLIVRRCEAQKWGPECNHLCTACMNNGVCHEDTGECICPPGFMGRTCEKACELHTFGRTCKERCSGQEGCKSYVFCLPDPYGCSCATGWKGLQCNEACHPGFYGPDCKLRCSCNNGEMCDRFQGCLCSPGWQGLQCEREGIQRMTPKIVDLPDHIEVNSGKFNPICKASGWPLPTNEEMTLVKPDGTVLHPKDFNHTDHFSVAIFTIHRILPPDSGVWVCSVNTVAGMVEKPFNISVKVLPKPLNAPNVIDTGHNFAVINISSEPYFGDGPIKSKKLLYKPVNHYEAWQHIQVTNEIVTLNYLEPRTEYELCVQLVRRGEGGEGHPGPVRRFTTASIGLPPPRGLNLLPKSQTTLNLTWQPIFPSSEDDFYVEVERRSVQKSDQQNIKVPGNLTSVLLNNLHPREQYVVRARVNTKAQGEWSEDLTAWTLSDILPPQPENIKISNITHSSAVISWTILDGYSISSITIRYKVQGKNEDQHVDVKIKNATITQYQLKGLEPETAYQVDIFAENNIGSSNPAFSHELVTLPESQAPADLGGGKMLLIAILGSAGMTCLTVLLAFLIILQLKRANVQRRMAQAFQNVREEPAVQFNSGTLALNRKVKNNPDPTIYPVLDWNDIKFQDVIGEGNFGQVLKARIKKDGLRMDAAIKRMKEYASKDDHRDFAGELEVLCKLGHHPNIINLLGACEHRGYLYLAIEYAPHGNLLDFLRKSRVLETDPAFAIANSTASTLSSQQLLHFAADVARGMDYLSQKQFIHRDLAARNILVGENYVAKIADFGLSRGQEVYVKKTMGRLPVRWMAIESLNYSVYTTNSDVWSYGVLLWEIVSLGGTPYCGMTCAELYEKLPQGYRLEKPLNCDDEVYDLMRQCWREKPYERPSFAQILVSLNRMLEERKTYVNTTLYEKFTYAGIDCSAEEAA
Sequence of Vascular endothelial growth factor receptor 2 (P35968 whole entry): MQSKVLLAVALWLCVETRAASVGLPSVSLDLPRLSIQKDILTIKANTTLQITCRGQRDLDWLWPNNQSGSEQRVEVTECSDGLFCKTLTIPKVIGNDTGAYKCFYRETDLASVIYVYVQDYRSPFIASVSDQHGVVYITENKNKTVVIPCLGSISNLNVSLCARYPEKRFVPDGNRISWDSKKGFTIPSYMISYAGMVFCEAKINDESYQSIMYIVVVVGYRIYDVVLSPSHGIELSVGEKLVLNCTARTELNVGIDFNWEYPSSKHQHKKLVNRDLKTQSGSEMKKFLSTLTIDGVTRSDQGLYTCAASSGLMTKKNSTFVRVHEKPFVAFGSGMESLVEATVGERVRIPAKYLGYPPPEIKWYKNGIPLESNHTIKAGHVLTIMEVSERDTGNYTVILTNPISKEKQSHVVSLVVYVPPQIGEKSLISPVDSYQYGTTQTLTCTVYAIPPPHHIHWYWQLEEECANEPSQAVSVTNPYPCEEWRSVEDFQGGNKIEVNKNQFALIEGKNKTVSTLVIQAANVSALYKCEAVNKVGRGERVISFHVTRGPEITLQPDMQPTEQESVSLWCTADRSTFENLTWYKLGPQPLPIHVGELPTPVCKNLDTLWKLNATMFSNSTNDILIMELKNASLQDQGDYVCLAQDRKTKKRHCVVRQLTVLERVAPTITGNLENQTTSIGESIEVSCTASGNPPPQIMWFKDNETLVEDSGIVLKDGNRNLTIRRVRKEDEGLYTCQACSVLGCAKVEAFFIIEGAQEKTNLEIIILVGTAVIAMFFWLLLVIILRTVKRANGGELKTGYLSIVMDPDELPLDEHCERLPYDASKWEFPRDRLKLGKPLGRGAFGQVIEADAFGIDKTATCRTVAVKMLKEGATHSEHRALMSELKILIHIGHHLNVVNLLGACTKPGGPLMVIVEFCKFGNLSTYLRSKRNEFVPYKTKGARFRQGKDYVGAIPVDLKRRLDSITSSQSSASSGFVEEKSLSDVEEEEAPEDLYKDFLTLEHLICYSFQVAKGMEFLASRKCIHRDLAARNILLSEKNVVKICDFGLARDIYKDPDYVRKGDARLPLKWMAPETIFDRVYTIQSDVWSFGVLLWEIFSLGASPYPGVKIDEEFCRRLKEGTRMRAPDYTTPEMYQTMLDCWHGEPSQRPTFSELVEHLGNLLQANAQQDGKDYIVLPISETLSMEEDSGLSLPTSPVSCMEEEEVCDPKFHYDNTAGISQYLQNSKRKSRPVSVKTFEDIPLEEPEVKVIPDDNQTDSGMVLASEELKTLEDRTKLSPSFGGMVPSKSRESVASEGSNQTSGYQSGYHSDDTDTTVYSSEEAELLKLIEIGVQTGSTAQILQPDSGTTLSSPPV
Sequence of Mitogen-activated protein kinase 14 (Q16539 whole entry): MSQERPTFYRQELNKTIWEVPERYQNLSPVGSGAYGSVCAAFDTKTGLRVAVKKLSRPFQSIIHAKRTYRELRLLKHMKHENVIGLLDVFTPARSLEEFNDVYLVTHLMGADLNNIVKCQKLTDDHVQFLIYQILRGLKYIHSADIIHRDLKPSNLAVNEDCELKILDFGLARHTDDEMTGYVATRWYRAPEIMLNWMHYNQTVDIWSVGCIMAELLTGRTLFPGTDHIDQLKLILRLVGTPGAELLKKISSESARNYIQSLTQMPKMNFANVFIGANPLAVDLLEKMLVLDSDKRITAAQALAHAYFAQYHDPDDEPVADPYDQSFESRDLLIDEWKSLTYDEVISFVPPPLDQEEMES

Row | SMILES | fraction unbound [1] | IC50 (Blood [2]) [nM] | IC50 (Blood [3]) [nM] | Vd [4] [L/kg] | Tmax [5] [h] | fraction unbound [6] | IC50 [7] [µM] | IC50 (Angiopoietin-1 receptor) [µM] | IC50 [8] [nM] | AUC(0-inf) [9] [ng·h/mL] | Cmax [10] [ng/mL] | IC50 [11] [nM] | half-life [12] [min] | bioavailability [13] [%] | clearance [14] [mL/min/kg] | IC50 (Lymphocyte) [nM] | IC50 [15] [nM]
1 | Cc1ccc(NC(=O)c2cccc(C(F)(F)F)c2C)cc1C(=O)Nc1cnc(Nc2ccc(N3CCN(C)CC3)cc2)nc1 | 0.016 | 1370 | 2 | 5.45 | 2.75 | 0.014 | > 25 | > 8.3 | 12 | 92 | 28 | 54 | 108 | 7 | 48.7 | 60 | –
2 | CCc1ccc(NC(=O)c2ccc3c(c2)OC(F)(F)O3)cc1C(=O)Nc1cnc(Nc2ccc(N3CCN(C)CC3)cc2)nc1 | – | – | – | – | – | – | > 25 | > 25 | 233 | – | – | > 5000 | – | – | – | 928 | 6
3 | Cc1ccc(NC(=O)Nc2cccc(C(F)(F)F)c2)cc1-c1ccc2nc(N)ncc2c1 | – | – | – | – | – | – | 3.04 | 0.093 | 28 | – | – | 169 | – | – | – | 205 | 7
4 | Cc1ccc(NC(=O)c2cccc(C(F)(F)F)c2)cc1-c1ccc2nc(N)ncc2c1 | – | – | – | – | – | – | 0.156 | 0.021 | 1 | – | – | 6 | – | – | – | 43 | 0.4
5 | Cc1ccc(C(=O)Nc2cccc(C(F)(F)F)c2)cc1C(=O)Nc1cnc(N)nc1 | – | – | – | – | – | – | > 25 | > 5 | 87 | – | – | 205 | – | – | – | – | 15
6 | Cc1ccc(NC(=O)c2cccc(C(F)(F)F)c2)cc1C(=O)Nc1cnc(NCCN2CCOCC2)nc1 | – | – | – | – | – | – | > 25 | > 25 | 6 | – | – | > 8300 | – | – | – | 202 | –
7 | Cc1ccc(NC(=O)Nc2cccc(C(F)(F)F)c2)cc1C(=O)Nc1cnc(N)nc1 | – | – | – | – | – | – | > 25 | > 25 | – | – | – | 587 | – | – | – | 158 | 63
8 | Cc1ccc(NC(=O)c2cccc(C(F)(F)F)c2)cc1C(=O)Nc1cnc(NC2CCN(C)CC2)nc1 | – | – | – | – | – | – | > 25 | > 25 | 5 | – | – | > 25000 | – | – | – | – | 1310
9 | Cc1ccc(NC(=O)c2cccc(C(F)(F)F)c2)c(C)c1C(=O)Nc1cnc(Nc2ccc(N3CCN(C)CC3)cc2)nc1 | – | – | – | – | – | – | > 25 | > 25 | 103 | – | – | 2540 | – | – | – | 836 | 6
10 | Cc1ccc(NC(=O)c2ccc(C(C)(C)C)cc2)cc1C(=O)Nc1cnc(Nc2ccc(N3CCN(C)CC3)cc2)nc1 | – | – | – | 15.8 | – | – | > 25 | > 8.3 | 22 | – | – | 32 | 174 | – | 111 | 10 | 1.5
11 | Cc1ccc(NC(=O)c2ccccc2)cc1C(=O)Nc1cnc(Nc2ccc(N3CCN(C)CC3)cc2)nc1 | – | – | – | – | – | – | > 25 | > 25 | 0.9 | – | – | 947 | – | – | – | 187 | 5
12 | Cc1ccc(C(=O)Nc2cccc(C(F)(F)F)c2)cc1-c1ccc2nc(N)ncc2c1 | – | – | – | – | – | – | – | – | – | – | – | – | – | – | – | 9 | –
13 | CN1CCN(c2ccc(Nc3ncc(NC(=O)c4cc(NC(=O)c5ccc6c(c5)OC(F)(F)O6)ccc4Cl)cn3)cc2)CC1 | – | – | – | – | – | – | > 5 | > 5 | 6 | – | – | 13 | – | – | – | 29 | 1.8
